Measured values as given in article PMC10439952, “JT002, a small molecule inhibitor of the NLRP3 inflammasome for the treatment of autoinflammatory disorders” (Scientific Reports, 2023).

Key:
Type in all cases: cell-based
NLRP3 inflammasome [1] = target: T1, NLRP3 inflammasome (Homo sapiens, UniProt Q96P20); assay: Inhibition of IL-1β production in LPS stimulated (alternative pathway) human whole blood
Procedure: (§1) Inflammasome activation and whole blood assays were essentially carried out as described earlier. Details can be found in the supplementary information section accompanying this publication. A protocol for blood draws from healthy volunteers and use of the blood in preclinical assays was approved by Western Institutional Review Board, Inc (Puyallup, WA, USA). Informed consent was obtained from each donor prior to the first blood draw.
(§2) Cell viability was determined by addition of an equal volume of CellTiter-Glo® 2.0 reagent (Promega) to the remaining cells/supernatant in each well. Intracellular Caspase-1 activity was measured using the Caspase-Glo® assay (Promega) according to the manufacturer’s instructions. The biochemical capsase-1 assay was conducted at Reaction Biology Corporation (Malvern, USA). Human IL-1β, IL-1α, and TNFα and mouse IL-1β were measured in cell culture supernatants using homogeneous time resolved fluorescence assay kits (HTRF, Cisbio, Codolet, France). Human IL-18 was measured in cell culture supernatants using an ELISA kit (R&D Systems, Minneapolis, MN, USA). Plasma IL-1β concentrations were determined by Quantikine® ELISA (R&D Systems, Minneapolis, MN). […]
(§3) flagellin, prepared in Opt iMEM and combined with Lipofectamine 2000. […]

NLRP3 inflammasome [2] = target: T1, NLRP3 inflammasome; assay: Inhibition of IL-1β production in LPS + ATP stimulated (canonical) human whole blood; parameters: host or cells: fresh heparinised human whole blood from healthy volunteers; conditions: read-out: Geo Av IC50, IL-1β
Procedure: as §1, §2, §3

NLRP3 inflammasome [3] = target: NLRP3 inflammasome (Mus musculus, UniProt Q8R4B8); assay: Inhibition of IL-1β production in mouse BMDMs stimulated by LPS + cholesterol crystals; parameters: host or cells: mouse PBMCs; mouse bone-marrow derived macrophages; mouse whole blood (C57BL/6 in the ex vivo study); conditions: Mouse BMDM, read-out: Geo Av IC50, IL-1β
Chain of NLRP3 inflammasome (Mus musculus, UniProt Q8R4B8) (Q8R4B8 whole entry): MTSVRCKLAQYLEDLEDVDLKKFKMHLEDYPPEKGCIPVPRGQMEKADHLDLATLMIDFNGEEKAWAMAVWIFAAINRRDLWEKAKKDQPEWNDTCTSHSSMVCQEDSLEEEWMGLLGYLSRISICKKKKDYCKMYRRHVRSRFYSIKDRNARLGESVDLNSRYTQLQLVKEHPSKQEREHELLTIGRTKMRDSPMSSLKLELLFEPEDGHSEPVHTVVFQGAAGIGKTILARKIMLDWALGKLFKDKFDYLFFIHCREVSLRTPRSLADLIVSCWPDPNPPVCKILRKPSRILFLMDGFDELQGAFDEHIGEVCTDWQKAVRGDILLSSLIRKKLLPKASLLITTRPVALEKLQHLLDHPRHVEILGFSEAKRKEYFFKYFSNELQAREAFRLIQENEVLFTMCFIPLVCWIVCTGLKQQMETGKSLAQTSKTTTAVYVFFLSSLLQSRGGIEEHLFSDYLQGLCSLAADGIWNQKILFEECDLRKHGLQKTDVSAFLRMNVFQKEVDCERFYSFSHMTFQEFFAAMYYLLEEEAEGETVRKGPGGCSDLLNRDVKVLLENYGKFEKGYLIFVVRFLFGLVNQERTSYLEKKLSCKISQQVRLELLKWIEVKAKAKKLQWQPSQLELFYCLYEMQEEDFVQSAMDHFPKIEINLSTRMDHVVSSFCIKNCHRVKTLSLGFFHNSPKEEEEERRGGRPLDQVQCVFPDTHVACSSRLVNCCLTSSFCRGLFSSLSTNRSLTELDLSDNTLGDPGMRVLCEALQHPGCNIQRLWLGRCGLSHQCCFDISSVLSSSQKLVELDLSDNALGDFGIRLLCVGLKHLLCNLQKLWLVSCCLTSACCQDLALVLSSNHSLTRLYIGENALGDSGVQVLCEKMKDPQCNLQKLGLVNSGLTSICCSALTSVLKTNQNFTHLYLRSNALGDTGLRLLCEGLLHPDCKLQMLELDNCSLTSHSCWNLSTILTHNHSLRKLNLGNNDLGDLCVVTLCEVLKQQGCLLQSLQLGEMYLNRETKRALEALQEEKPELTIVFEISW
Procedure: as §1
Cell viability was determined by addition of an equal volume of CellTiter-Glo® 2.0 reagent (Promega) to the remaining cells/supernatant in each well. Intracellular Caspase-1 activity was measured using the Caspase-Glo® assay (Promega) according to the manufacturer’s instructions. The biochemical capsase-1 assay was conducted at Reaction Biology Corporation (Malvern, USA). Human IL-1β, IL-1α, and TNFα and mouse IL-1β were measured in cell culture supernatants using homogeneous time resolved fluorescence assay kits (HTRF, Cisbio, Codolet, France). Human IL-18 was measured in cell culture supernatants using an ELISA kit (R&D Systems, Minneapolis, MN, USA). Plasma IL-1β concentrations were determined by Quantikine® ELISA (R&D Systems, Minneapolis, MN).
4H). MS: m/z 433.1 (M+H+). […]

T1 sequence (Q96P20 whole entry): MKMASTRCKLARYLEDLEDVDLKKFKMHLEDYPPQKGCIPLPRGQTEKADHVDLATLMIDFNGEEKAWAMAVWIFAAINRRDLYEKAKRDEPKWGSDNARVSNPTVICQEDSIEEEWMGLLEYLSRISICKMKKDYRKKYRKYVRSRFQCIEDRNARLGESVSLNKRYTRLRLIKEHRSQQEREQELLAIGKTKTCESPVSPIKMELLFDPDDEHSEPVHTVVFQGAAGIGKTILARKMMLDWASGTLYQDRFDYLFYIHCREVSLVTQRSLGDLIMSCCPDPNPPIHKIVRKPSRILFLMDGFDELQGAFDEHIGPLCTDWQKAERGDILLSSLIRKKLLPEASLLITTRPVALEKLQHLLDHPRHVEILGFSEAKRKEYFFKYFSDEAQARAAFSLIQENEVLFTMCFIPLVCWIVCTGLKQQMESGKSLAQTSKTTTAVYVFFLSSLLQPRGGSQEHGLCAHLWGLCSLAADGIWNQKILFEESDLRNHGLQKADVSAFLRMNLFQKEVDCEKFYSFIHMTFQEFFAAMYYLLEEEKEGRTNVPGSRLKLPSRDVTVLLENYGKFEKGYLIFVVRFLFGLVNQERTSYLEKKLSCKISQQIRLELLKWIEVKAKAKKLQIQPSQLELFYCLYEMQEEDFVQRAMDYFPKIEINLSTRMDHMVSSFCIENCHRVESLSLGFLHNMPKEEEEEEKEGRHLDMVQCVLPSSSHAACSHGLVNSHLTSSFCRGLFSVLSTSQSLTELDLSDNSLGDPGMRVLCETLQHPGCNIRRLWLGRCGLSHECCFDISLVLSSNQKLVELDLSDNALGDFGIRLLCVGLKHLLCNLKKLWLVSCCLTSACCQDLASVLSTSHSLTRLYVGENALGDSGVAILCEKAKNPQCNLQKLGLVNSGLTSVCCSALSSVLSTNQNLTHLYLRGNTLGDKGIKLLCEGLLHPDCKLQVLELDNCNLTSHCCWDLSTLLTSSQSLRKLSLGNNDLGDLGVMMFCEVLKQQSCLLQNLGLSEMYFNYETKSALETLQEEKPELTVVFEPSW

CO[C@@H]1COc2c(S(=O)(=O)NC(=O)Nc3c4c(cc5c3CCC5)CCC4)cnn2C1 [JT002]
IC50 (NLRP3 inflammasome [1]; Human whole blood, LPS only (alternative pathway), read-out: Geo Av IC50, IL-1β): 32 nM | IC50 in human whole blood, alternative (LPS) versus canonical (LPS + ATP) NLRP3 pathway activation (NLRP3 inflammasome [1]; how much lower the alternative pathway IC50 is): threefold more potent | IC50 (NLRP3 inflammasome [2]): 100 nM | IC50 (NLRP3 inflammasome [3]): 2 nM
